Assay results: the NIST ThermoML archive (doi:10.1021/acs.jced.8b01174)
± gives the expanded uncertainty stated by the source.

What was measured:
[1] = 97.7 kPa, Liquid; for viscosity: Concentric cylinders viscometry; for mass density: Vibrating tube method
[2] = molar heat capacity at constant pressure; settings: 100 kPa, Liquid, DSC
[3] = wn = mass fraction of the nth substance listed; settings: 97.7 kPa, Liquid, w2 = 0.874; for viscosity: Concentric cylinders viscometry; for mass density: Vibrating tube method

O [water]
Settings | mass density, [1] [kg/m3] | molar heat capacity at constant pressure, [2] [J/K/mol] | viscosity, [1] [mPa·s]
293.15 K | 998 ± 2 | – | 1 ± 0.02
298.15 K | – | 74.8 ± 3.5 | –
303.15 K | 996 ± 2 | – | 0.8 ± 0.02
308.15 K | – | 74.78 ± 3.5 | –
313.15 K | 992 ± 2 | – | 0.65 ± 0.02
318.15 K | – | 74.93 ± 3.5 | –
323.15 K | 988 ± 2 | – | 0.55 ± 0.02
328.15 K | – | 75.02 ± 3.5 | –
333.15 K | 983 ± 2 | – | 0.47 ± 0.02
338.15 K | – | 75.07 ± 3.5 | –
343.15 K | 978 ± 2 | – | 0.4 ± 0.02
348.15 K | – | 75.21 ± 3.6 | –
353.15 K | 972 ± 2 | – | 0.35 ± 0.02
363.15 K | 965 ± 2 | – | 0.31 ± 0.02

C1CNCCN1 [piperazine] + CN(CCO)CCO
[3]
Settings | mass density [kg/m3] | viscosity [mPa·s]
293.15 K | 1036 ± 3 | 150.46 ± 4.3
303.15 K | 1029 ± 3 | 79.46 ± 2.3
313.15 K | 1021 ± 3 | 45.07 ± 1.3
323.15 K | 1014 ± 3 | 27.24 ± 0.81
333.15 K | 1006 ± 3 | 17.41 ± 0.54
343.15 K | 999 ± 3 | 11.68 ± 0.4
353.15 K | 991 ± 3 | 8.18 ± 0.27
363.15 K | 983 ± 3 | 5.93 ± 0.2
